Format in all cases: functional, cell-based
In series [1] the target is T1, ATP-dependent translocase ABCB1 (Homo sapiens, UniProt P08183). Put plainly: TP_TRANSPORTER: increase in Daunomycin intracellular accumulation (Daunomycin: 0.05 uM, Silymarin: 50 uM) in MDA435/LCC6 MDR1 cells. Conditions: mda-mb-435/lcc6 mdr1, 50 µM.
Series [2] deals with T1, ATP-dependent translocase ABCB1. As to the kind of experiment: TP_TRANSPORTER: cell accumulation of daunomycin in MDA435/LCC6MDR1 cells.
For series [3] the target is unchanged. As to the kind of experiment: TP_TRANSPORTER: increase in Daunomycin intracellular accumulation (Daunomycin: 0.05 uM, Morin: 50 uM) in MDA435/[…] cells.
For series [4] the target is unchanged. Put plainly: TP_TRANSPORTER: increase in Daunomycin intracellular accumulation (Daunomycin: 0.05 uM, BiochaninA: 50 uM) in MDA435/[…] cell.

T1 sequence (P08183 whole entry): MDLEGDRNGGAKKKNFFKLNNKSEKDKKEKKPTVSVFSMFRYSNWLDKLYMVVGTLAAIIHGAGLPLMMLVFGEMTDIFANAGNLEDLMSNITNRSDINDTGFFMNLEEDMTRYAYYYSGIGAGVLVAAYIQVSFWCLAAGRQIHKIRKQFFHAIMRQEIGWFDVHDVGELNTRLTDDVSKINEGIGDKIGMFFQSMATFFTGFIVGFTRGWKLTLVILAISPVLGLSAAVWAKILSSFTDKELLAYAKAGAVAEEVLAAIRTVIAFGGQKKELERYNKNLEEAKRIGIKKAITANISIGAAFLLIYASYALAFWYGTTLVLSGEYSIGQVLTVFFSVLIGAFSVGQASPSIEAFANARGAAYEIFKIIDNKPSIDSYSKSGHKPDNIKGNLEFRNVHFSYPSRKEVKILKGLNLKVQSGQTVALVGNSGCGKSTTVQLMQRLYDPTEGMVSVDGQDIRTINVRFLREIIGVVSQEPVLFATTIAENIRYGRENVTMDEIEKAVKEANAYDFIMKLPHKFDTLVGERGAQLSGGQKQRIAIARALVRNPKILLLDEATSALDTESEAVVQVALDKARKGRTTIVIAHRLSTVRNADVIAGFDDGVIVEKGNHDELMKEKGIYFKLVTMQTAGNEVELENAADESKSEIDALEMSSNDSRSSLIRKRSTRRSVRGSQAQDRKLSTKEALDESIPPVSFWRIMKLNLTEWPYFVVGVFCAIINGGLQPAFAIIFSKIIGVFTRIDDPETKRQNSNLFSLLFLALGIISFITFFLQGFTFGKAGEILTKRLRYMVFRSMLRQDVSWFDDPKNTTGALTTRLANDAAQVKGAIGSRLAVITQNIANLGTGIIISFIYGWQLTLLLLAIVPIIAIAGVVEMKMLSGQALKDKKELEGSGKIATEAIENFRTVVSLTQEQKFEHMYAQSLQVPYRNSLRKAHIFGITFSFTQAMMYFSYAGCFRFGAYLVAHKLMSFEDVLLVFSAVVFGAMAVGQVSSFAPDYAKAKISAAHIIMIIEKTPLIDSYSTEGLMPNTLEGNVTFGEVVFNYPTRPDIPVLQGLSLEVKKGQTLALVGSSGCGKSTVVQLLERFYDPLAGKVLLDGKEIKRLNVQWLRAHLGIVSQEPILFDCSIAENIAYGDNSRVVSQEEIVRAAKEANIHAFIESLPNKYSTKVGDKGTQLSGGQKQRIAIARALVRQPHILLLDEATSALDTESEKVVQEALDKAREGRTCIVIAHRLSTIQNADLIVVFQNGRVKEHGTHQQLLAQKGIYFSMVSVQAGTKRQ

With SILYMARIN, the Activity result in series [1] is “inhibitor [(at a rough estimate) 420 % of control]”; in series [2] it was “inhibitor [+]”.

As to `O=C(CCc1ccc(O)cc1)c1c(O)cc(O)cc1O` [PHLORETIN], the Activity entry in series [2] is “inhibitor [+]”.

As for `COc1ccc(CCN(C)CCCC(C#N)(c2ccc(OC)c(OC)c2)C(C)C)cc1OC` (stereo not drawn) [VERAPAMIL], the Activity result in series [2] is “inhibitor [+]”.

With `O=c1c(O)c(-c2ccc(O)cc2O)oc2cc(O)cc(O)c12` [MORIN], the Activity entry was “inhibitor [(at a rough estimate) 585 % of control]” in series [3] and “inhibitor [+]” in series [2].

As for `COc1ccc(-c2coc3cc(O)cc(O)c3c2=O)cc1` [BIOCHANIN], the figures for the Activity entry in series [4] and in series [2] were “inhibitor [(at a rough estimate) 645 % of control]” and “inhibitor [+]”, respectively.

The record behind these values is ChEMBL document CHEMBL2074188, “Effects of the flavonoids biochanin A, morin, phloretin, and silymarin on P-glycoprotein-mediated transport” (J Pharmacol Exp Ther, 2003).
